Assay results from patent US20070148110A1, “Aqueous-alcoholic depigmenting gels comprising mequinol and adapalene” (GALDERMA RESEARCH & DEVELOPMENT, priority 2004, published 2007).

Test system: skin of the tail of the SKH2 mouse
Assay: Depigmenting activity on the skin of the tail of the SKH2 mouse
Format: in vivo
Set-up: key to depigmentation score: 0: natural pigmentation; −1: slight depigmentation; −2: moderate depigmentation; −3: marked depigmentation; −4: total depigmentation
Conditions: adapalene 0.1%; for depigmentation score: 4 weeks topical; for depigmenting effect: topical, after 4 weeks, mequinol 2%
Protocol: The purpose of the present study is to evaluate the depigmenting activity of a composition comprising either (i) 2% of mequinol, (ii) 0.1% of adapalene or (iii) the combination of both of them (composition according to the invention) on the skin of the tail of the SKH2 mouse after 4 weeks of topical application.
The two formulations gel and gel-cream are also compared. The two formulations (20 μl) are applied topically on the tails of SKH2 mice separated into two groups (female mice about 9 weeks old) at the rate of one application per day for 5 days over a period of 4 weeks.
Evaluation is based on various clinical observations: once a week, the pigmentation is evaluated as a score on a scale from 0 to 4. The basis of scoring is as follows: • 0: natural pigmentation Depigmentation scale: scores −1 to −4 • −1: slight depigmentation • −2: moderate depigmentation • −3: marked depigmentation • −4: total depigmentation

SMILES	depigmentation score (gel formulation)	depigmentation score (gel-cream formulation)	depigmenting effect
COc1ccc(-c2ccc3cc(C(=O)O)ccc3c2)cc1C12CC3CC(CC(C3)C1)C2 [Adapalene, 6-[3-(1-adamantyl)-4-methoxyphenyl]-2-naphthoic acid]	0	0	does not have a depigmenting effect
COc1ccc(O)cc1 [Mequinol, 4-hydroxyanisole]	–	–	significant depigmenting effect
